How the values were obtained:
mouse CIA model = assay: Collagen induced arthritis (CIA) model; assay type: in vivo; parameters: key: per paw 0 = none to 4 = maximal; sum of 4 paws, max 16
Procedure: Completed Freund's adjuvant (CFA) and incomplete Freund's adjuvant (IFA) were purchased from Difco. Bovine collagen type II (CII), lipopolysaccharide (LPS), and Enbrel® (etanercept) were obtained from Chondrex (L'Isle d'Abeau, France); Sigma (P4252, L'Isle d'Abeau, France), Whyet (25 mg injectable syringe, France), respectively. All other reagents used were of reagent grade and all solvents were of analytical grade.
DBA1/J mice (male, 7-8 weeks old) were obtained from Charles River Laboratories (Écully, France). Mice were kept on a 12 h light/dark cycle. Temperature was maintained at 22° C., and food and water were provided ad libitum.
One day before the experiment, CII solution (2 mg/mL) was prepared with 0.05 M acetic acid and stored at 4° C. Just before the immunization, equal volumes of adjuvant […] and CII were mixed by a homogenizer in a pre-cooled glass bottle in an ice water bath. Extra adjuvant and prolonged homogenization may be required if an emulsion is not formed. 0.2 mL of the emulsion was injected intradermally at the base of the tail of each mouse on day 1, a second booster intradermal injection (CII solution at 2 mg/mL in […]) was performed on […]. This immunization method was modified from published methods (Jou et al. 2005; Sims et al. 2004).
The therapeutic effects of the compounds were tested in the mouse CIA model. Mice were randomly divided into equal groups and each group contained 10 mice. All mice were immunized on day 1 and boosted on day 21. The negative control group was treated with vehicle (MC 0.5%) and the positive control group with Enbrel® (10 mg/kg, 3× week., sc). A compound of interest was typically tested at 3 doses per os (p.o.). At day 32, randomization between groups was performed with respect with clinical score and animals were therapeutically treated regarding their group until day 47. Body weight and clinical score, were recorded at least twice a week.
Arthritis is scored according to the method of Khachigian 2006, Lin et al 2007 and Nishida et al. 2004 (Khachigian 2006; Lin et al. 2007; Nishida et al. 2004). The swelling of each of the four paws is ranked with the arthritic score as follows: 0-no symptoms; 1-mild, but definite redness and swelling of one type of joint such as the ankle or wrist, or apparent redness and swelling limited to individual digits, regardless of the number of affected digits; 2-moderate redness and swelling of two or more types of joints; 3-severe redness and swelling of the entire paw including digits; 4-maximally inflamed limb with involvement of multiple joints (maximum cumulative clinical arthritis score 16 per animal) (Nishida et al. 2004).

[1] = system: mouse T cell transfer model; assay: T cell transfer model (mice); assay type: in vivo; conditions: 30 mg/kg p.o. b.i.d.
Source text: DynaMag (Cat #12321D and 123203D) were obtained from Life Technologies Invitrogen (California, USA); DynabeadsFlowComp Mouse CD4+CD25-treg cells (Cat #11463D) were obtained from Life Technologies Invitrogen (California, USA), Fetal Bovine Serum (GIBCO), Cat #10270-106; RPMI (Gibco) Cat #32404-014 and D-PBS 1× without CaCl2 without MgCl2 (GIBCO), Cat #14190-086 were obtained ThermoFisher Scientific (Massachusetts, USA). Red Blood Cell (RBC) lysis buffer 10×, Cat #BLE420301 obtained from Ozyme (Montigny-le-Bretonneux, France). Cell strainer (70 μm grid), Cat #352350, obtained from Corning (New York, USA). […]
Fourteen days after cell injection, 100 μL of blood was sampled on each mouse under anesthesic conditions in order to determine CD4 level. […] Disease activity index was determined twice a week. Four to six weeks after the start of treatment, mice were sacrificed, blood was sampled and the complete colon was removed and rinsed with sterile PBS, it was measured and weighed in order to determine colon weight/length ratio. […]
There were 12 mice per group. The results were expressed as mean±SEM and statistical analysis was performed using non parametric test Kruskal-Wallis with Dunn's Multiple comparison test versus vehicle groups. […]

COc1cc(-c2cnc3cc(OCCN4CCOCC4)ccn23)cc2c1C(=O)N(CC(F)(F)F)CC2 [Cpd 88, 8-methoxy-6-[7-(2-morpholinoethoxy)imidazo [1,2-a]pyridin-3-yl]-2-(2,2,2-trifluoroethyl)-3,4-dihydroisoquinolin-1-one]
CIA clinical score (mouse CIA model; 10 mg/kg b.i.d. p.o., day 32): 2.7 | CIA clinical score (mouse CIA model; 10 mg/kg b.i.d. p.o., day 33): 3.1 | CIA clinical score (mouse CIA model; 10 mg/kg b.i.d. p.o., day 35): 3.6 | CIA clinical score (mouse CIA model; 10 mg/kg b.i.d. p.o., day 36): 4.1 | CIA clinical score (mouse CIA model; 10 mg/kg b.i.d. p.o., day 39): 4.4 | CIA clinical score (mouse CIA model; 10 mg/kg b.i.d. p.o., day 40): 4.8 | CIA clinical score (mouse CIA model; 10 mg/kg b.i.d. p.o., day 41): 4.5 | CIA clinical score (mouse CIA model; 10 mg/kg b.i.d. p.o., day 42): 4.9 | CIA clinical score (mouse CIA model; 10 mg/kg b.i.d. p.o., day 43): 5.1 | CIA clinical score (mouse CIA model; 10 mg/kg b.i.d. p.o., day 46): 8.0 | CIA clinical score (mouse CIA model; 10 mg/kg b.i.d. p.o., day 47): 7.9 | CIA clinical score (mouse CIA model; 30 mg/kg b.i.d. p.o., day 32): 2.7 | CIA clinical score (mouse CIA model; 30 mg/kg b.i.d. p.o., day 33): 2.7 | CIA clinical score (mouse CIA model; 30 mg/kg b.i.d. p.o., day 35): 3.4 | CIA clinical score (mouse CIA model; 30 mg/kg b.i.d. p.o., day 36): 3.8 | CIA clinical score (mouse CIA model; 30 mg/kg b.i.d. p.o., day 39): 4.5 | CIA clinical score (mouse CIA model; 30 mg/kg b.i.d. p.o., day 40): 4.7 | CIA clinical score (mouse CIA model; 30 mg/kg b.i.d. p.o., day 41): 4.7 | CIA clinical score (mouse CIA model; 30 mg/kg b.i.d. p.o., day 42): 5.2 | CIA clinical score (mouse CIA model; 30 mg/kg b.i.d. p.o., day 43): 4.6 | CIA clinical score (mouse CIA model; 30 mg/kg b.i.d. p.o., day 46): 6.1 | CIA clinical score (mouse CIA model; 30 mg/kg b.i.d. p.o., day 47): 5.4 | CIA clinical score (mouse CIA model; 60 mg/kg b.i.d. p.o., day 32): 2.7 | CIA clinical score (mouse CIA model; 60 mg/kg b.i.d. p.o., day 33): 2.7 | CIA clinical score (mouse CIA model; 60 mg/kg b.i.d. p.o., day 35): 3.1 | CIA clinical score (mouse CIA model; 60 mg/kg b.i.d. p.o., day 36): 2.8 | CIA clinical score (mouse CIA model; 60 mg/kg b.i.d. p.o., day 39): 3.3 | CIA clinical score (mouse CIA model; 60 mg/kg b.i.d. p.o., day 40): 3.0 | CIA clinical score (mouse CIA model; 60 mg/kg b.i.d. p.o., day 41): 2.7 | CIA clinical score (mouse CIA model; 60 mg/kg b.i.d. p.o., day 42): 2.8 | CIA clinical score (mouse CIA model; 60 mg/kg b.i.d. p.o., day 43): 2.3 | CIA clinical score (mouse CIA model; 60 mg/kg b.i.d. p.o., day 46): 2.8 | CIA clinical score (mouse CIA model; 60 mg/kg b.i.d. p.o., day 47): 2.5 | AUC of DAI vs. vehicle group [1]: statistical significant reduction of AUC of DAI
